Some targets named below: Carbonic anhydrase 12 (Homo sapiens, UniProt O43570); Carbonic anhydrase 1 (Homo sapiens, UniProt P00915); Carbonic anhydrase 9 (Homo sapiens, UniProt Q16790); Carbonic anhydrase 2 (Homo sapiens, UniProt P00918).

Sequence of Carbonic anhydrase 1 (P00915 whole entry): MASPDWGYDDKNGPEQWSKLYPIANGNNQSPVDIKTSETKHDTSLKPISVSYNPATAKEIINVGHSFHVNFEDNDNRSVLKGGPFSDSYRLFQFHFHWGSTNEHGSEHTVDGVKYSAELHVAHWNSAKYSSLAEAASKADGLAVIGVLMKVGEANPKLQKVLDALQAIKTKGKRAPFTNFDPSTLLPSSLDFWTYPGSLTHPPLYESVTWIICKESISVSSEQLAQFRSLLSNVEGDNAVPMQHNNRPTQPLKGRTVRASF
Sequence of Carbonic anhydrase 12 (O43570 whole entry): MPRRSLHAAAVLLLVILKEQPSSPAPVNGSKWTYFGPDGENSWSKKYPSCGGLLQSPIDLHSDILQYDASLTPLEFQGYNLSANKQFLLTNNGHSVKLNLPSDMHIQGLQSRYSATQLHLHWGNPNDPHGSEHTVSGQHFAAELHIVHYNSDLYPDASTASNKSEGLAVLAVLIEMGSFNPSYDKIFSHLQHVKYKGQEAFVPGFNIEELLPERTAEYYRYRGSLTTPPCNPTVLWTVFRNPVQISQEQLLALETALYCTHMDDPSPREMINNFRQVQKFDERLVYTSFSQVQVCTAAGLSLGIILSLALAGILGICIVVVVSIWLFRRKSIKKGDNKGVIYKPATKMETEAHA

By Ki is commonly meant a measure of affinity in units of concentration, obtained from inhibition or displacement. Lower therefore signals higher affinity. `NS(=O)(=O)c1ccc(CCNC(=S)Nc2ccc(-c3c4ccc(=O)cc-4oc4cc(O)ccc34)c(C(=O)O)c2)cc1` displayed a Ki at Carbonic anhydrase 12 of 5 nM.
Turning to `NS(=O)(=O)c1cccc(N2C(=O)c3c(Br)c(Br)c(Br)c(Br)c3C2=O)c1`, the figures for the Ki on Carbonic anhydrase 12 and at Carbonic anhydrase 1 were 19 nM and 340 nM, respectively.
`NS(=O)(=O)c1ccccc1N1C(=O)c2c(Br)c(Br)c(Br)c(Br)c2C1=O`: the Ki on Carbonic anhydrase 12 was 197 nM; on Carbonic anhydrase 9, 234 nM; on Carbonic anhydrase 1, over 10000 nM; at Carbonic anhydrase 2 it was 190 nM.
In the case of `NS(=O)(=O)c1ccc(N2C(=O)c3c(Br)c(Br)c(Br)c(Br)c3C2=O)c(F)c1`, the Ki at Carbonic anhydrase 12 came out at 7.5 nM; at Carbonic anhydrase 9, 9.4 nM; at Carbonic anhydrase 1, 770 nM; on Carbonic anhydrase 2 it was 96 nM.
As to `NS(=O)(=O)c1ccc(N2C(=O)c3c(Br)c(Br)c(Br)c(Br)c3C2=O)c(Cl)c1`, the Ki at Carbonic anhydrase 12 is 5.9 nM; on Carbonic anhydrase 9, 8.5 nM; on Carbonic anhydrase 1, 208 nM; on Carbonic anhydrase 2, 55 nM.
For the compound `NS(=O)(=O)c1ccc(N2C(=O)c3c(Br)c(Br)c(Br)c(Br)c3C2=O)c(Br)c1`, the Ki was found to be 6.5 nM at Carbonic anhydrase 12, 8.8 nM at Carbonic anhydrase 9, 143 nM on Carbonic anhydrase 1 and 47 nM on Carbonic anhydrase 2.
For `NS(=O)(=O)c1ccc(N2C(=O)c3c(Br)c(Br)c(Br)c(Br)c3C2=O)cc1` the same measures were 6.1 nM, 9.1 nM, 432 nM and 68 nM.
Consider `NS(=O)(=O)c1ccc(CN2C(=O)c3c(Br)c(Br)c(Br)c(Br)c3C2=O)cc1`, for which the Ki was determined as 12.3 nM at Carbonic anhydrase 12, 12.3 nM on Carbonic anhydrase 9 and 251 nM on Carbonic anhydrase 1.
As for `NS(=O)(=O)c1ccc(CCN2C(=O)c3c(Br)c(Br)c(Br)c(Br)c3C2=O)cc1`, the Ki at Carbonic anhydrase 12 came to 10.2 nM; on Carbonic anhydrase 9 it was 15.9 nM.

Source of the values: ChEMBL document CHEMBL2424648, “Carbonic anhydrase inhibitors: synthesis and inhibition of the human carbonic anhydrase isoforms I, II, VII, IX and XII with benzene sulfonamides incorporating 4,5,6,7-tetrabromophthalimide moiety” (Bioorg Med Chem, 2013).
